Measured values as given in patent publication US20210369678A1, “BENZIMIDAZOLE DERIVATIVE FOR USE IN THE TREATMENT OF INFLAMMATORY DISORDERS” (Akebia Therapeutics, Inc., priority 2018, published 2021).
Entries after “also recorded” stand apart in the source; their conditions may differ. Where two headings read alike, the source gives them in different places.

What was measured:
[1] = IV/p.o. pharmacokinetic study in dog; format: in vivo, male beagle dogs; settings: for bioavailability: male, beagle, po, p.o. suspension in 0.5% HPMC
Protocol: (§1) Intravenous and oral (IV/p.o.) pharmacokinetic (PK) studies in rat, dog and monkey were carried out to facilitate the projection of human PK for Compound 1.
(§2) In the rat studies, Compound 1 was dosed both as a suspension (in 0.5% HPMC) and as a solution in 20% HPPCD. Experiments in the dog and monkey were dosed as a suspension in 0.5% HPMC.

[2] = Caco-2 cell monolayer permeability; format: in vitro ADME; settings: human, tested at 10 μM, read-out: apical-to-basolateral apparent permeability Papp
Protocol: In Caco-2 cell monolayers, Compound 1 had low apical-to-basolateral apparent permeability Papp value of <0.2×10^−6 cm/s when tested at 10 μM.

DSS-induced colitis = experiment: Dextran sulfate sodium (DSS)-induced colitis model; format: in vivo, mice
Protocol: Colitis was induced in 121 mice by exposure to 3% DSS-treated drinking water from Day 0 to Day 5. Animals were dosed via oral gavage (p.o.) with Compound 1, 6-thioguanine, or vehicle control once a day (q.d.) from Day 6 to 19. Video endoscopy was performed on days 10, 14, and 19. At these time points, colitis severity was assessed in all animals using video endoscopy, where images were taken and colitis severity scored by a blinded observer. During each endoscopy procedure, stool consistency was recorded using a 0-4 scale and an image from each animal was captured at the most severe region of disease that was identified. Following endoscopy on Day 19, all animals for the efficacy component were euthanized with CO2 inhalation. Blood was collected via cardiac puncture and placed in K2EDTA tubes for preparation of plasma. A small whole blood sample was retained for the assessment of hemoglobin and hematocrit while the remaining sample was processed to plasma, then split into two samples and snap frozen. A complete blood count, including hematocrit and hemoglobin levels, was assessed using an automated PCE-90 Vet hematology unit (HTI). FIG. 3 depicts the serum hemoglobin concentration after 14 days of oral dosing Compound 1 in mice with dextran sulfate sodium (DSS)-induced colitis. FIG. 4 depicts Endoscopy Colitis Scores in mice with dextran sulfate sodium (DSS)-induced colitis dosed via oral gavage with Compound 1, 6-thioguanine, or vehicle control once a day after 19 days.

[3] = Plasma drug concentrations after oral and intraperitoneal dosing (LC MS/MS); format: in vivo, male Balb/c mice; settings: male, Balb/c, mouse, read-out: blood levels; for concentration at 1 h: 1 h post dosing; for concentration at 6 h: 6 h post dosing
Protocol: (§3) The effect of both oral (p.o.) and intraperitoneal (i.p.) doses of Compound 1 on systemic EPO in male Balb/c mice was investigated, along with plasma drug concentrations at 1 h and 6 h post dosing. Systemic EPO was measured 6 h post dosing of Compound 1 using a commercially-available MSD assay system, correlated to standard curves. Plasma drug concentrations were quantitated by LC MS/MS. […] FIG. 1 depicts the EPO response to oral (p.o.) and intraperitoneal (i.p.) doses of Compound 1 at 6 h in BalbC mice.

[4] = IV/p.o. pharmacokinetic study in monkey; format: in vivo, male cynomolgus monkeys
Protocol: as §1, §2

[5] = IV/p.o. pharmacokinetic study in rat; format: in vivo, male Sprague Dawley rats
Protocol: Separate cohorts (n=3) of non-fasted male Sprague Dawley rats were administered Compound 1 at a dose of 1 mg/kg intravenously (IV) via tail vein, 5 mg/kg orally as a solution, or 5 mg/kg orally as a suspension. Blood samples were collected at 0.033 (IV only), 0.083 (IV only), 0.25, 0.5, 1, 2, 4, 8, and 24 hrs post dose after administration. Blood was harvested via the jugular vein catheter. Blood samples were collected into tubes containing K2EDTA and placed on wet ice. The plasma fraction was separated by centrifugation and frozen at −20 to −80 ° C. Concentrations of Compound 1 in plasma were determined using a qualified liquid chromatography-triple quadrupole mass spectrometry. FIG. 2 depicts the plasma concentration of Compound 1 in healthy male SD rats over 24 hours.
as §1, §2

systemic EPO = experiment: Systemic EPO response after oral and intraperitoneal dosing (MSD assay); format: in vivo, male Balb/c mice; settings: 6 h post dosing
Protocol: as §3

TNBS-induced colitis = experiment: Trinitrobenzene sulfonic acid (TNBS)-induced colitis model; format: in vivo, male SJL mice
Protocol: A study was conducted to determine the effects of Compound 1 compared to positive control prednisolone dosed by the oral (p.o.) route in trinitrobenzene sulfonic acid (TNBS)-induced colitis in male SJL mice (FIG. 5). The mice were divided into 5 groups. The mice were fasted for 12 to 16 hours prior to TNBS challenge. On day 0 of the study, mice in groups 2 through 5 were infused intrarectally (IR) with 50 μL TNBS solution (1.5 mg in 50% EtOH/PBS per mouse) to induce colitis. The mice in group 2 were dosed (PO) daily (QD) on days 0 to 3 with vehicle (0.5% HPMC, 0.1% Tween 80 in water). The mice in group 4 were dosed p.o. daily on days 0 to 3 with Compound 1 at 10 mpk, and the mice in group 5 were dosed p.o. daily on days 0 to 3 with Compound 1 at 30 mpk. Prednisone (group 3) was used as a positive control and was dosed p.o., QD on days 0 to 3. Group 1 served as naïve controls. On study day 4, the mice were anesthetized with Isoflurane, bled to exsanguination, and then euthanized for necropsy and tissue collection. Efficacy evaluation was based on animal body weight measurements, colon weights, colon lengths, colon weight per length ratios, histopathology of proximal and distal colons—evaluated as proximal only, distal only, or full colon (proximal and distal). Longitudinal sections of proximal and distal colon were stained with hematoxylin and eosin (H&E). Sections were analyzed using the criteria below and were scored for inflammation, gland loss, and mucosal necrosis. [table] [table] [table] [table] The histopathology sum score was calculated as a sum of inflammation, gland loss, erosion/necrosis (derived from the measure of total length vs. length of mucosal necrosis, i.e., percent), and hyperplasia scores.

[6] = 10 and 30 mg/kg p.o. QD days 0 to 3

## O=C(O)c1cnn(-c2nc3cc(S(=O)(=O)c4ccccc4)c(Cl)cc3[nH]2)c1 [Compound 1, 1-(6-chloro-5-(phenylsulfonyl)-1H-benzo[d]imidazol-2-yl)-1H-pyrazole-4-carboxylic acid]
[1]
  estimated fa*fg (fa: fraction absorbed; fg: fraction that escapes gut metabolism): ≤ 0.12
  terminal t1/2: short
[1]; in vivo
  bioavailability: ≤ 5%
[1]; plasma
  bioavailability: < 5%
[2]
  Papp A→B at 10 μM: < 0.2 ×10⁻⁶ cm/s
DSS-induced colitis; p.o. dosing
  efficacy in mouse model of inflammatory bowel disease: excellent efficacy
DSS-induced colitis; p.o. dosing, mouse models of inflammatory bowel disease
  systemic pharmacology resulting in increases in EPO/hematocrit: no systemic pharmacology resulting in increases in EPO/hematocrit was observed
DSS-induced colitis; p.o. q.d. Day 6 to 19, 3% DSS Day 0 to 5
  Endoscopic Colitis Scores: effective at ameliorating DSS induced colitis
[3]; ip, 100 umol/kg i.p.
  concentration at 1 h: 42200 nM
  concentration at 6 h: 5100 nM
[3]; po, 100 umol/kg p.o.
  concentration at 1 h: 100 nM
  concentration at 6 h: 20 nM
[4]
  estimated fa*fg (fa: fraction absorbed; fg: fraction that escapes gut metabolism): ≤ 0.12
  terminal t1/2: short
[4]; male, cynomolgus monkey, plasma, po, p.o. suspension in 0.5% HPMC
  bioavailability: ≤ 5%
[5]
  estimated fa*fg (fa: fraction absorbed; fg: fraction that escapes gut metabolism): ≤ 0.12
  terminal t1/2: short
[5]; male, Sprague-Dawley, plasma, po, 5 mg/kg, p.o. dosing
  bioavailability: ≤ 5%
Systemic EPO; 100 umol/kg i.p.
  EPO stimulation: 34 fold above vehicle control
Systemic EPO; 100 umol/kg p.o.
  EPO stimulation: no EPO stimulation
TNBS-induced colitis; [6]
  body weight loss: statistically significant inhibition of body weight loss; also recorded: protects against body weight loss
  colon histopathology: improvements in colon histopathology
  colon weight/length ratio: decreased colon weight/length ratios; also recorded: improves colon weight/length ratio
TNBS-induced colitis; 10 or 30 mpk p.o. QD days 0 to 3
  full-colon and proximal-colon histopathology: significant beneficial effects
TNBS-induced colitis; p.o. QD days 0 to 3
  histopathology inflammation score: improves the histopathology inflammation score
  histopathology summed score: improves the histopathology summed score
TNBS-induced colitis; p.o. dosing
  efficacy in mouse model of inflammatory bowel disease: excellent efficacy
